Among the test systems are OVCAR-5 ovarian; SK-MEL-5 melanoma; MCF7 breast; HL-60(TB) leukemia; MDA-MB-231 breast; CAKI-1 renal; UACC-62 melanoma.
Common to all, as to assay: NCI anticancer screen, dose series, 48 h

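These data come from cells grown in 96-well plates and exposed to compound for 48 hours at five concentrations. GI50 is the concentration that inhibits growth by half. Definition used: TGI = concentration required for complete inhibition of growth.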 Some results are limits rather than exact numbers.

On to `COC(=O)Nc1nc2ccc(Oc3ccc(NC(=O)Nc4cccc(Br)c4)cc3)cc2[nH]1`, for which the GI50 in the experiment with OVCAR-5 ovarian is > 11.9 µM; with SK-MEL-5 melanoma, 0.948 µM; in the experiment with MCF7 breast, 0.22 µM; in the experiment on HL-60(TB) leukemia, 1.06 µM; with MDA-MB-231 breast it was 5.74 µM; in the experiment on CAKI-1 renal it was 8.74 µM. For the same compound, the GI50 in the experiment with UACC-62 melanoma was 0.906 µM. Also, the TGI in the experiment on OVCAR-5 ovarian is > 25 µM; with SK-MEL-5 melanoma it was 11.9 µM; in the experiment with MCF7 breast, 3.77 µM; in the experiment with HL-60(TB) leukemia it was > 10.6 µM; with MDA-MB-231 breast, > 25 µM; in the experiment with CAKI-1 renal it was > 25 µM. Moreover, the TGI with UACC-62 melanoma came to 7.41 µM.

For `Cc1[nH]c(C(=O)Nc2ccc(C(=O)N3CCNCC3)cc2OC(C)C)c(Cl)c1Cl`, the GI50 in the experiment on OVCAR-5 ovarian is 1.79 µM; in the experiment with SK-MEL-5 melanoma, 1.73 µM; in the experiment with MCF7 breast, 1.8 µM; in the experiment with HL-60(TB) leukemia, 2.21 µM; with MDA-MB-231 breast, 1.67 µM; with CAKI-1 renal, 3.61 µM. The GI50 with UACC-62 melanoma was 1.8 µM. For the same compound, the TGI worked out at 4.04 µM in the experiment with OVCAR-5 ovarian; 3.13 µM in the experiment on SK-MEL-5 melanoma; 3.59 µM with MCF7 breast; 4.44 µM in the experiment with HL-60(TB) leukemia; 3.33 µM in the experiment on MDA-MB-231 breast; 15.1 µM in the experiment on CAKI-1 renal. This compound returned a TGI in the experiment with UACC-62 melanoma of 3.38 µM.

With `COc1cc2c(cc1OCCCOC1=C=C=C(c3ccc4c(c3)c3cc(-c5ccc(OCCCOc6cc7c(cc6OC)C(=O)N6CCC[C@H]6C=N7)cc5)ccc3n4S(=O)(=O)c3ccc(C)cc3)C=C1)N=C[C@@H]1CCCN1C2=O`, the GI50 with OVCAR-5 ovarian was 5.87 µM; in the experiment with SK-MEL-5 melanoma it was 4.26 µM; in the experiment on MCF7 breast, 1.23 µM; in the experiment with HL-60(TB) leukemia, 0.826 µM; in the experiment on MDA-MB-231 breast it was 5.31 µM; in the experiment with CAKI-1 renal, 1.29 µM. In addition, in the experiment on UACC-62 melanoma, the GI50 is 1.89 µM. The TGI is 17.8 µM in the experiment with OVCAR-5 ovarian; 11.1 µM in the experiment with SK-MEL-5 melanoma; 11.3 µM in the experiment with MCF7 breast; > 11.4 µM with HL-60(TB) leukemia; 16 µM in the experiment with MDA-MB-231 breast; 6.21 µM in the experiment on CAKI-1 renal. The TGI with UACC-62 melanoma came out at 8.76 µM.

`OCCCCC#Cc1ccccc1C#Cc1ccccc1F`: the GI50 with OVCAR-5 ovarian was 16.2 µM; with SK-MEL-5 melanoma it was 23.6 µM; in the experiment with MCF7 breast, 42.1 µM; in the experiment with HL-60(TB) leukemia, 22.2 µM; in the experiment on MDA-MB-231 breast, 17 µM; with CAKI-1 renal, 24.2 µM. In addition, the GI50 with UACC-62 melanoma was 16.5 µM. The TGI was 33.3 µM with OVCAR-5 ovarian; 52.3 µM in the experiment with SK-MEL-5 melanoma; > 100 µM with MCF7 breast; 44.9 µM in the experiment on HL-60(TB) leukemia; 36.6 µM with MDA-MB-231 breast; 51.4 µM in the experiment with CAKI-1 renal. This compound showed a TGI in the experiment on UACC-62 melanoma of 32.6 µM.

`CSc1ccc(-c2cc(-c3ccc(NC(=O)CCCN4CCCC4)cc3)nc(-c3ccc(NC(=O)CCCN4CCCC4)cc3)c2)cc1`: the GI50 in the experiment on OVCAR-5 ovarian is 2.28 µM; in the experiment with SK-MEL-5 melanoma it was 2.74 µM; in the experiment on HL-60(TB) leukemia, 6.54 µM; with MDA-MB-231 breast, 1.85 µM; in the experiment with CAKI-1 renal, 4.94 µM; in the experiment on UACC-62 melanoma, 11.9 µM. Moreover, the TGI with OVCAR-5 ovarian was determined as 4.86 µM; with SK-MEL-5 melanoma, 10.7 µM; in the experiment with HL-60(TB) leukemia, 23.5 µM; with MDA-MB-231 breast, 3.69 µM; in the experiment with CAKI-1 renal, 21.3 µM; in the experiment on UACC-62 melanoma it was 32.4 µM.

As to `C[N+](C)([O-])CCCNc1c2ccccc2nc2cccc([N+](=O)[O-])c12`, the TGI came out at 1.57 µM with OVCAR-5 ovarian; 0.327 µM in the experiment on SK-MEL-5 melanoma; 0.623 µM with MCF7 breast; 4.22 µM in the experiment with HL-60(TB) leukemia; 1.48 µM with MDA-MB-231 breast; 11.6 µM in the experiment with CAKI-1 renal. In the experiment with UACC-62 melanoma, this compound displayed a TGI of 0.491 µM.

Take `O=S1(=O)N(Cc2ccccc2)[C@@H](Cc2ccccc2)C2O[C@H]2[C@H](Cc2ccccc2)N1Cc1ccccc1` (stereo partly specified): the GI50 with OVCAR-5 ovarian was > 7.5 µM; in the experiment with SK-MEL-5 melanoma it was 1.79 µM; with MCF7 breast, 4.27 µM; in the experiment on HL-60(TB) leukemia it was 4.75 µM; in the experiment with MDA-MB-231 breast, > 7.5 µM; with CAKI-1 renal, 0.949 µM. The GI50 in the experiment with UACC-62 melanoma is 6.75 µM. The TGI in the experiment on OVCAR-5 ovarian, in the experiment with SK-MEL-5 melanoma, with MCF7 breast, in the experiment with HL-60(TB) leukemia, in the experiment with MDA-MB-231 breast and in the experiment on CAKI-1 renal was > 7.5 µM throughout. The TGI with UACC-62 melanoma was > 7.5 µM.

In the case of `CCCCCCCCCCCCCCCC(=O)OCC1OC(n2cnc3c(=S)nc(N)[nH]c32)C(OC(=O)CCCCCCCCCCCCCCC)C1OC(=O)CCCCCCCCCCCCCCC` (stereo unspecified), the GI50 was 3.4 µM in the experiment with OVCAR-5 ovarian; > 47 µM in the experiment on SK-MEL-5 melanoma; 1.65 µM with MCF7 breast; > 35.6 µM with HL-60(TB) leukemia; 2.66 µM in the experiment on MDA-MB-231 breast; 1.05 µM in the experiment on CAKI-1 renal. Further, the GI50 with UACC-62 melanoma is 3.35 µM. The TGI was > 39.3 µM with OVCAR-5 ovarian; > 50 µM in the experiment with SK-MEL-5 melanoma; > 26.1 µM in the experiment on MCF7 breast; > 50 µM with HL-60(TB) leukemia; > 22.1 µM in the experiment with MDA-MB-231 breast; > 14.8 µM in the experiment with CAKI-1 renal. Moreover, the TGI in the experiment on UACC-62 melanoma was > 21.5 µM.

For `c1cc(C2CCCCC2)ccc1OCCCCCCN1CCNCC1`, the GI50 with OVCAR-5 ovarian was 1.75 µM; in the experiment with SK-MEL-5 melanoma it was 1.78 µM; with MCF7 breast it was 1.63 µM; in the experiment with HL-60(TB) leukemia, 1.54 µM; in the experiment with MDA-MB-231 breast it was 1.61 µM; in the experiment with CAKI-1 renal it was 2.01 µM. Further, in the experiment with UACC-62 melanoma, the GI50 was 1.86 µM. The TGI in the experiment on OVCAR-5 ovarian was found to be 3.5 µM; in the experiment with SK-MEL-5 melanoma, 3.26 µM; with MCF7 breast, 3.32 µM; in the experiment on HL-60(TB) leukemia, 3.32 µM; in the experiment with MDA-MB-231 breast, 3.29 µM; with CAKI-1 renal, 4.54 µM. For the same compound, the TGI in the experiment with UACC-62 melanoma came out at 3.81 µM.

On to `CN(C)C(=S)NN=C(c1ccccn1)c1ccccn1`, for which the GI50 in the experiment with OVCAR-5 ovarian was 0.045 µM; in the experiment on SK-MEL-5 melanoma, 0.0629 µM; in the experiment with MCF7 breast it was < 0.01 µM; in the experiment on HL-60(TB) leukemia it was < 0.0479 µM; with MDA-MB-231 breast, 0.0412 µM; in the experiment with CAKI-1 renal it was < 0.0127 µM. The GI50 in the experiment with UACC-62 melanoma is 0.077 µM. Moreover, the TGI in the experiment on OVCAR-5 ovarian is 27.4 µM; with SK-MEL-5 melanoma, 3.45 µM; with MCF7 breast it was > 47.4 µM; with MDA-MB-231 breast, 27.8 µM; in the experiment with CAKI-1 renal, 6.59 µM; in the experiment on UACC-62 melanoma, 0.739 µM.

Consider `C[C@]12CC/C(=N\N)C[C@@H]1CC[C@@H]1[C@@H]2CC[C@]2(C)/C(=N/N)CC[C@@H]12`, for which the GI50 in the experiment on OVCAR-5 ovarian, in the experiment with SK-MEL-5 melanoma, in the experiment with MCF7 breast, with HL-60(TB) leukemia, in the experiment on MDA-MB-231 breast and in the experiment with CAKI-1 renal was > 100 µM each time. Moreover, in the experiment with UACC-62 melanoma, the GI50 was > 100 µM. In addition, the TGI in the experiment with OVCAR-5 ovarian, with SK-MEL-5 melanoma, in the experiment with MCF7 breast, in the experiment with HL-60(TB) leukemia, in the experiment with MDA-MB-231 breast and in the experiment on CAKI-1 renal was > 100 µM throughout. For the same compound, in the experiment on UACC-62 melanoma, the TGI is > 100 µM.

As to `COc1cc2c(c(OC)c1OC)-c1ccc(NNC(=S)N(Cc3cccc(C[N+](Cc4cccc(CNC56CC7CC(CC(C7)C5)C6)c4)(Cc4cccc(CNC56CC7CC(CC(C7)C5)C6)c4)Cc4cccc(CN(C(=S)NNc5ccc6c(cc5=O)[C@@H](NC(C)=O)CCc5cc(OC)c(OC)c(OC)c5-6)C56CC7CC(CC(C7)C5)C6)c4)c3)C34CC5CC(CC(C5)C3)C4)c(=O)cc1[C@@H](NC(C)=O)CC2` (stereo partly specified), the GI50 in the experiment on OVCAR-5 ovarian is 1.17 µM; in the experiment with SK-MEL-5 melanoma it was 0.81 µM; with MCF7 breast, 0.862 µM; in the experiment with HL-60(TB) leukemia, 0.168 µM; with MDA-MB-231 breast, 0.994 µM; in the experiment on CAKI-1 renal it was 3.2 µM. In the experiment with UACC-62 melanoma, the GI50 is 1.61 µM. In addition, the TGI in the experiment with OVCAR-5 ovarian was found to be 5.03 µM; in the experiment with SK-MEL-5 melanoma, 2.25 µM; in the experiment with MCF7 breast, 3.44 µM; with HL-60(TB) leukemia, 1.03 µM; with MDA-MB-231 breast, 2.99 µM; with CAKI-1 renal, 7.37 µM. In the experiment with UACC-62 melanoma, the TGI is 6.38 µM.

`CC1=C(SCc2ccccc2)C(=O)c2ccccc2C1=O`: the TGI in the experiment on OVCAR-5 ovarian is 71.7 µM; with SK-MEL-5 melanoma, 31 µM; in the experiment on MCF7 breast, 40.6 µM; in the experiment on HL-60(TB) leukemia, > 100 µM; with MDA-MB-231 breast, 41.3 µM; in the experiment on CAKI-1 renal, 26.2 µM. This compound had a TGI with UACC-62 melanoma of 31.8 µM.

Turning to `Cc1ccc2c[c]1[Hg][CH2]COS2(=O)=O`, the GI50 in the experiment with OVCAR-5 ovarian was 18.7 µM; with SK-MEL-5 melanoma it was 16.7 µM; with MCF7 breast, 17.9 µM; with HL-60(TB) leukemia it was 21.8 µM; with MDA-MB-231 breast, 17.5 µM; with UACC-62 melanoma, 17.2 µM. Moreover, the TGI was determined as 37.4 µM in the experiment on OVCAR-5 ovarian; 30.3 µM in the experiment with SK-MEL-5 melanoma; 39.4 µM in the experiment with MCF7 breast; 42.1 µM in the experiment with HL-60(TB) leukemia; 32 µM in the experiment on MDA-MB-231 breast; 30.9 µM with UACC-62 melanoma.

In the case of `COc1ccc(C(O)c2cc3c(N)c(C(=O)Nc4cccc(Cl)c4C)sc3nc2C)cc1` (stereo unspecified), the GI50 is 0.932 µM with OVCAR-5 ovarian; 0.874 µM with SK-MEL-5 melanoma; 0.569 µM in the experiment with MCF7 breast; 0.877 µM in the experiment with HL-60(TB) leukemia; 0.781 µM in the experiment with MDA-MB-231 breast; 0.689 µM in the experiment on CAKI-1 renal. Also, the GI50 in the experiment on UACC-62 melanoma is 0.896 µM. Moreover, the TGI came to 1.92 µM in the experiment on OVCAR-5 ovarian; 1.58 µM in the experiment on SK-MEL-5 melanoma; 1.24 µM in the experiment with MCF7 breast; 2.14 µM in the experiment on HL-60(TB) leukemia; 1.57 µM in the experiment with MDA-MB-231 breast; 1.38 µM in the experiment on CAKI-1 renal. The TGI with UACC-62 melanoma was determined as 1.67 µM.

(Values after PubChem BioAssay (NCI).)
